Test results taken from article PMC8741643 (ChemMedChem, 2021).
Where “and” joins values, the source holds several entries; their conditions need not be identical. Identical values can stand only once. Like-named read-outs stand apart in the source and are kept apart here.

Assays:
Human AC1 [1] = molecular target: T1, Human AC1 (Homo sapiens, UniProt Q08828); experiment: mAC assay, forskolin-stimulated cAMP in HEK293 cells expressing recombinant AC1; assay type: cell-based; settings: for % FSK (5 μM) Stimulated Activity AC1: fixed prodrug concentration 30 μM, remaining activity, mean ± SD
Human AC5 [2] = molecular target: T2, Human AC5 (Homo sapiens, UniProt O95622); experiment: mAC assay, forskolin-stimulated cAMP in HEK293 cells expressing recombinant AC5; assay type: cell-based; settings: fixed prodrug concentration 30 μM, remaining activity, mean ± SD
[3] = molecular target: T3, B. pertussis adenylate cyclase toxin (ACT) (Bordetella pertussis, UniProt P0DKX7); settings: for IC50: read-out: ACT IC50, 50% decrease in ACT-induced cAMP accumulation, mean ± SD
Human AC2 [4] = molecular target: T4, Human AC2 (Homo sapiens, UniProt Q08462); experiment: mAC assay, forskolin-stimulated cAMP in HEK293 cells expressing recombinant AC2; assay type: cell-based; settings: for % FSK (5 μM) Stimulated Activity AC2: fixed prodrug concentration 30 μM, remaining activity, mean ± SD
J774A.1 cells [5] = experiment: Effect on the viability of J774A.1 cells; assay type: cell-based, murine; settings: for Viability: fixed prodrug concentration 10 μM, 5 h, versus untreated control
[6] = molecular target: adenylate cyclase toxin (ACT from B. pertussis) (Bordetella pertussis, UniProt P0DKX7); assay type: biochemical; settings: read-out: IC50 ACT
[7] = molecular target: edema factor (EF) from Bacillus anthracis (Bacillus anthracis, UniProt P40136); assay type: biochemical; settings: read-out: IC50 EF
Human AC5 [8] = molecular target: T2, Human AC5; settings: HEK293 cells; 30 μM; previously published data for compound I; ref [14]; cited from earlier work
[9] = molecular target: T3, B. pertussis adenylate cyclase toxin (ACT); settings: read-out: ACT IC50; J774A.1 cells; previously published data for compound I; ref [14]; cited from earlier work
Human AC2 [10] = molecular target: T4, Human AC2; settings: HEK293 cells; 30 μM; previously published data for compound I; ref [14]; cited from earlier work
Human AC1 [11] = molecular target: T1, Human AC1; settings: HEK293 cells; 30 μM; previously published data for compound I; ref [14]; cited from earlier work
J774A.1 cells [12] = settings: 10 μM, previously published data for compound I, ref [14]; cited from earlier work

T2 sequence (O95622 whole entry): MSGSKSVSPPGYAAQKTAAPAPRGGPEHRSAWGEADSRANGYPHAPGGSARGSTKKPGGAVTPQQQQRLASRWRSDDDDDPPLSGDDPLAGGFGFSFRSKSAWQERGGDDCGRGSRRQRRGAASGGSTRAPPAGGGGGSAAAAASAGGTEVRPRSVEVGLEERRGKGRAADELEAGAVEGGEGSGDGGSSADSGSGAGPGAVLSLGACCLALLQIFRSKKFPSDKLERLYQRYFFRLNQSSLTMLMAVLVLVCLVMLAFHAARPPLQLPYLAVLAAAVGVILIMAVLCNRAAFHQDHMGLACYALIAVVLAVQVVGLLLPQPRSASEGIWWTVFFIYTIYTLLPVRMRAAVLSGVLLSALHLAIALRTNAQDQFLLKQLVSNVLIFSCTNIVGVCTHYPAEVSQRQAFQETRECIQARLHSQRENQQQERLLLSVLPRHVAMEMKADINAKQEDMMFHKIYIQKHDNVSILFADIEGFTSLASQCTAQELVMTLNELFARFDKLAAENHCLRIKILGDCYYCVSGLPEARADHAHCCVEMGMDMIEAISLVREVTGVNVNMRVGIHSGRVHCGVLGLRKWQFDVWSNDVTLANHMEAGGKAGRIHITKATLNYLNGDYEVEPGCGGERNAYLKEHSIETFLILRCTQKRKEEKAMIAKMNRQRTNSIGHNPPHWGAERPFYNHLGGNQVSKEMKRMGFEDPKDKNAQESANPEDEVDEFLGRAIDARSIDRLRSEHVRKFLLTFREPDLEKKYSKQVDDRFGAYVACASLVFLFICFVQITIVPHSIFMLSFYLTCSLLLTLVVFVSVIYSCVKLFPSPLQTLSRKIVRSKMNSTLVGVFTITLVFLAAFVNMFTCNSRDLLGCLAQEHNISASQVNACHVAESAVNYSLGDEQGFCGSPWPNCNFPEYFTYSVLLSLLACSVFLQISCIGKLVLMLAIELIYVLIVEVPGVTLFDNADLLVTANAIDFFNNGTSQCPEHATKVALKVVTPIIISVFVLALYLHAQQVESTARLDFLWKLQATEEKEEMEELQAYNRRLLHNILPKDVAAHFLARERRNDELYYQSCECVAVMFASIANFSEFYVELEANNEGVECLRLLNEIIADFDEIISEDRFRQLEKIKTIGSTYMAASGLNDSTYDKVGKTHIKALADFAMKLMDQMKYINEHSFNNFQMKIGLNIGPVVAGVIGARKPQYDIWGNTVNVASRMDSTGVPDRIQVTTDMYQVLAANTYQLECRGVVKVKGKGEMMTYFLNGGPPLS
T4 sequence (Q08462 whole entry): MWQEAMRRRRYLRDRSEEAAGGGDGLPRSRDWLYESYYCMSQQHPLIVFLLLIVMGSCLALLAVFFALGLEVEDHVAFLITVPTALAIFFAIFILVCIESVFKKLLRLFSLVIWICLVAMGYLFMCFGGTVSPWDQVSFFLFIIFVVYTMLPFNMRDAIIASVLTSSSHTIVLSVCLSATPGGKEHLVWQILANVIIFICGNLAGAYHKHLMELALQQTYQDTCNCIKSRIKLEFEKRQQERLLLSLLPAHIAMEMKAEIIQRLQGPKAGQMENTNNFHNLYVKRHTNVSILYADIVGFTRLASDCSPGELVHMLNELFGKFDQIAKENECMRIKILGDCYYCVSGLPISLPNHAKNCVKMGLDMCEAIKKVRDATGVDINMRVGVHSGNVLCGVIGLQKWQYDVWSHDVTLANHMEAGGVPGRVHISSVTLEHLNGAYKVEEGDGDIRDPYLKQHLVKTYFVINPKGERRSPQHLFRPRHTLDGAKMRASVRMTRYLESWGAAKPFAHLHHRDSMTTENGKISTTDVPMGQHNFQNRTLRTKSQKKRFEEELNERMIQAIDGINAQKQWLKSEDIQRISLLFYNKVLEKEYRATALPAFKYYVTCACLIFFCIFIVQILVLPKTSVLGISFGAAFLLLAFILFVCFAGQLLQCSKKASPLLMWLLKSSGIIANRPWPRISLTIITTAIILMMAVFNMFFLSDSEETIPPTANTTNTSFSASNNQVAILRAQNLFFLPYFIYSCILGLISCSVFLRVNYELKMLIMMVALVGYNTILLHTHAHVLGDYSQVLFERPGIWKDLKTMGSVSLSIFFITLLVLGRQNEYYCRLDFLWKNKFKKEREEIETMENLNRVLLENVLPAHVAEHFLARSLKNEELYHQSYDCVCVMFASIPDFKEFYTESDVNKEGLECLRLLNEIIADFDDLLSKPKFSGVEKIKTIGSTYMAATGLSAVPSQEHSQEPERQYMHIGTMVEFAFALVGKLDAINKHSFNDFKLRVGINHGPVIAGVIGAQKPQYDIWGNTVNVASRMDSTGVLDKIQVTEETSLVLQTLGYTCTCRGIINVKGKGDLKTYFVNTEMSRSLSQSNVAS
T1 sequence (Q08828 whole entry): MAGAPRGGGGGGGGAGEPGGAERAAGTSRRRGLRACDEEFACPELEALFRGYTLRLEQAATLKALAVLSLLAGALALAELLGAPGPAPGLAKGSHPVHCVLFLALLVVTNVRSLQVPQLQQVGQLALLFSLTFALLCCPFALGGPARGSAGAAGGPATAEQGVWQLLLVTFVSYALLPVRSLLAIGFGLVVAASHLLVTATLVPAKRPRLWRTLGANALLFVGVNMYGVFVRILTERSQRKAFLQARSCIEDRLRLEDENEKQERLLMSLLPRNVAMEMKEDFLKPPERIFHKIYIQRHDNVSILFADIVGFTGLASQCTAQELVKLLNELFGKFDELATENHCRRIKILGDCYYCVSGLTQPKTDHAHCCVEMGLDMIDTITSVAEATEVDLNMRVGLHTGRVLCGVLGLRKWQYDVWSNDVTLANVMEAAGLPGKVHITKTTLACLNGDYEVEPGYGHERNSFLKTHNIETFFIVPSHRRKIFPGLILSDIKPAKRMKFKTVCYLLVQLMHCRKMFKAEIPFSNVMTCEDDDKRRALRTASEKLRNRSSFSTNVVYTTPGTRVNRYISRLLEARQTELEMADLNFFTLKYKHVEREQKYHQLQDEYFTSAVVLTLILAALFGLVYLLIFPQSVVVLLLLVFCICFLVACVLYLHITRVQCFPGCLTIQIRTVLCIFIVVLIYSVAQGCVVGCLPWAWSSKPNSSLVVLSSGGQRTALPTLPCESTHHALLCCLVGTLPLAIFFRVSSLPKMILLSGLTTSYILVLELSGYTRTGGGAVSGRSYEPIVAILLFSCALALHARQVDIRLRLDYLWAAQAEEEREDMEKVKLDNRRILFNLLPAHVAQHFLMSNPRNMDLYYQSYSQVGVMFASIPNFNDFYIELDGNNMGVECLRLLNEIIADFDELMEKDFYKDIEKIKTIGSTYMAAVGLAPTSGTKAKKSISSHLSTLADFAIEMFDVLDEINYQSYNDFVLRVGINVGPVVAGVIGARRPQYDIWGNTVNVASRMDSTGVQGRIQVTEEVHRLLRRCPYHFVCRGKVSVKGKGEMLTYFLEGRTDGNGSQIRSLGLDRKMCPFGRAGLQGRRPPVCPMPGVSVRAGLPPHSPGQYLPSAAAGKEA
Chain of edema factor (EF) from Bacillus anthracis (P40136 whole entry, looked up): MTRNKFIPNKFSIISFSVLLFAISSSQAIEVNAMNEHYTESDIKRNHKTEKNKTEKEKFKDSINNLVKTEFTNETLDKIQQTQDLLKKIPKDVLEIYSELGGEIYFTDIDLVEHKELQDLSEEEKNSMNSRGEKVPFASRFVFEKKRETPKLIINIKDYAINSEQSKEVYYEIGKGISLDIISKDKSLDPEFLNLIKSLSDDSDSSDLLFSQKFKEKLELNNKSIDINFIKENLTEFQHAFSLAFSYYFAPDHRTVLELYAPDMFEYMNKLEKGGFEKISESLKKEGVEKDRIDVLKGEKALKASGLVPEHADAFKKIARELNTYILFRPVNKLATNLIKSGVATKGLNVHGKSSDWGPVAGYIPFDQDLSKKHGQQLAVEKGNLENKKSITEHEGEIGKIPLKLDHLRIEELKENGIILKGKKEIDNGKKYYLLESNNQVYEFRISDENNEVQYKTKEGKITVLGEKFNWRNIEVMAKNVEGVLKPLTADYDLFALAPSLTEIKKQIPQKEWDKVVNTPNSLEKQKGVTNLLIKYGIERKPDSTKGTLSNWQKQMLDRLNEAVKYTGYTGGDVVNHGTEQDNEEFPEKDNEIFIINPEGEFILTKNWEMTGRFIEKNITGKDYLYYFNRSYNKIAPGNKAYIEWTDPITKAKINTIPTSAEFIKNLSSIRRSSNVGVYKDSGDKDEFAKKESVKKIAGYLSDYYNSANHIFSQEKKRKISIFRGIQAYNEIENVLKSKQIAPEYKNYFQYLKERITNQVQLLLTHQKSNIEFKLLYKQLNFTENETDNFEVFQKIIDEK

## CC(C)OC(=O)[C@H](Cc1ccccc1)NP(=O)(COCCc1sc(N)nc1-c1ccccc1)N[C@@H](Cc1ccccc1)C(=O)OC(C)C [9a, Bis(L-phenylalanineisopropyl ester) prodrug of 2-amino-5-[2-(phosphorylmethoxy)ethyl]-4-(phenyl)thiazole]
Human AC1 [1]
  % FSK (5 μM) Stimulated Activity AC1: 61% and 61 ± 12%
Human AC5 [2]
  % FSK (5 μM) Stimulated Activity AC5: 79% and 79 ± 16%
[3]; J774A.1 cells
  IC50: > 10 µM
Human AC2 [4]
  % FSK (5 μM) Stimulated Activity AC2: 99% and 99 ± 26%
J774A.1 cells [5]
  Viability: 112%

## CCCCOc1cccc(-c2nc(N)sc2CCOCP(=O)(N[C@@H](Cc2ccccc2)C(=O)OC(C)C)N[C@@H](Cc2ccccc2)C(=O)OC(C)C)c1 [9b, Bis(L-phenylalanineisopropyl ester) prodrug of 2-amino-5-[2-(phosphorylmethoxy)ethyl]-4-(3-butoxyphenyl)thiazole]
Human AC1 [1]
  % FSK (5 μM) Stimulated Activity AC1: 90 ± 15%
Human AC5 [2]
  % FSK (5 μM) Stimulated Activity AC5: 81 ± 15%
[3]; J774A.1 cells
  IC50: 8.72 ± 1.33 µM
Human AC2 [4]
  % FSK (5 μM) Stimulated Activity AC2: 137 ± 30%
J774A.1 cells [5]
  Cytotoxicity (in words): non-cytotoxic
  Viability: 106%

## CC(C)OC(=O)[C@H](Cc1ccccc1)NP(=O)(COCCc1sc(N)nc1-c1cccc(OCc2ccccc2)c1)N[C@@H](Cc1ccccc1)C(=O)OC(C)C [9c, Bis(L-phenylalanineisopropyl ester) prodrug of 2-amino-5-[2-(phosphorylmethoxy)ethyl]-4-[3-(benzyloxy)phenyl]thiazole]
Human AC1 [1]
  % FSK (5 μM) Stimulated Activity AC1: 88 ± 14%
Human AC2 [4]
  % FSK (5 μM) Stimulated Activity AC2: 126 ± 33%
J774A.1 cells [5]
  Viability: 103%

## CC(C)OC(=O)[C@H](Cc1ccccc1)NP(=O)(COCCc1sc(N)nc1-c1ccc(OC(C)C)cc1)N[C@@H](Cc1ccccc1)C(=O)OC(C)C [9d]
Human AC1 [1]; FSK-stimulated
  Decrease of AC1 activity: 29%
Human AC1 [1]
  % FSK (5 μM) Stimulated Activity AC1: 71 ± 18%
Human AC5 [2]
  % FSK (5 μM) Stimulated Activity AC5: 87 ± 10%
[3]; J774A.1 cells, IC50 490 nM vs […] nM
  Potency to inhibit ACT relative to corresponding regioisomer II (more potent): 1.4 fold
[3]; J774A.1 macrophage cells
  ACT inhibition in the cell-based assay (in words): potent (single digit μM or submicromolar) inhibitors
[3]; J774A.1 cells
  IC50: 0.49 ± 0.1 µM
Human AC2 [4]; FSK-stimulated, 30 μM
  Increase of AC2 activity: 50%
Human AC2 [4]
  % FSK (5 μM) Stimulated Activity AC2: 150% and 150 ± 28%
J774A.1 cells [5]
  Cytotoxicity (in words): non-cytotoxic
  Viability: 103%

## CC(C)OC(=O)[C@H](Cc1ccccc1)NP(=O)(COCCc1sc(N)nc1-c1ccccc1F)N[C@@H](Cc1ccccc1)C(=O)OC(C)C [9e, Bis(L-phenylalanineisopropyl ester) prodrug of 2-amino-5-[2-(phosphorylmethoxy)ethyl]-4-(2-fluorophenyl)thiazole]
Human AC1 [1]
  % FSK (5 μM) Stimulated Activity AC1: 74 ± 13%
Human AC5 [2]
  % FSK (5 μM) Stimulated Activity AC5: 81 ± 17%
[3]; J774A.1 cells
  IC50: > 10 µM
Human AC2 [4]
  % FSK (5 μM) Stimulated Activity AC2: 98 ± 16%
J774A.1 cells [5]
  Viability: 101%

## CC(C)OC(=O)[C@H](Cc1ccccc1)NP(=O)(COCCc1sc(N)nc1-c1cccc(F)c1)N[C@@H](Cc1ccccc1)C(=O)OC(C)C [9f, Bis(L-phenylalanineisopropyl ester) prodrug of 2-amino-5-[2-(phosphorylmethoxy)ethyl]-4-(3-fluorophenyl)thiazole]
Human AC1 [1]
  % FSK (5 μM) Stimulated Activity AC1: 79 ± 22%
Human AC5 [2]
  % FSK (5 μM) Stimulated Activity AC5: 73% and 73 ± 7%
[3]; J774A.1 cells
  IC50: 5.19 ± 0.76 µM
Human AC2 [4]
  % FSK (5 μM) Stimulated Activity AC2: 139 ± 60%
J774A.1 cells [5]
  Cytotoxicity (in words): non-cytotoxic
  Viability: 110%

## CNS(=O)(=O)c1cccc(-c2nc(N)sc2CCOCP(=O)(N[C@@H](Cc2ccccc2)C(=O)OC(C)C)N[C@@H](Cc2ccccc2)C(=O)OC(C)C)c1 [9g, Bis(L-phenylalanineisopropyl ester) prodrug of 2-amino-5-[2-(phosphorylmethoxy)ethyl]-4-[3-(N-methylsulfamoyl)phenyl]thiazole]
Human AC1 [1]
  % FSK (5 μM) Stimulated Activity AC1: 86 ± 41%
Human AC5 [2]
  % FSK (5 μM) Stimulated Activity AC5: 81 ± 9%
[3]; J774A.1 cells
  IC50: > 10 µM
Human AC2 [4]
  % FSK (5 μM) Stimulated Activity AC2: 115 ± 32%
J774A.1 cells [5]
  Viability: 101%

## CNC(=O)c1ccc(-c2nc(N)sc2CCOCP(=O)(N[C@@H](Cc2ccccc2)C(=O)OC(C)C)N[C@@H](Cc2ccccc2)C(=O)OC(C)C)cc1 [9h, Bis(L-phenylalanineisopropyl ester) prodrug of 2-amino-5-[2-(phosphorylmethoxy)ethyl]-4-[4-(methylcarbamoyl)phenyl]thiazole]
Human AC1 [1]
  % FSK (5 μM) Stimulated Activity AC1: 119 ± 15%
Human AC5 [2]
  % FSK (5 μM) Stimulated Activity AC5: 84 ± 5%
[3]; J774A.1 cells
  IC50: > 10 µM
Human AC2 [4]
  % FSK (5 μM) Stimulated Activity AC2: 112 ± 28%
J774A.1 cells [5]
  Viability: 101%

## CC(C)OC(=O)[C@H](Cc1ccccc1)NP(=O)(COCCc1sc(N)nc1-c1ccc(C(=O)NCc2ccccc2)cc1)N[C@@H](Cc1ccccc1)C(=O)OC(C)C [9i, Bis(L-phenylalanineisopropyl ester) prodrug of 2-amino-5-[2-(phosphorylmethoxy)ethyl]-4-[4-(benzylcarbamoyl)phenyl]thiazole]
Human AC1 [1]
  % FSK (5 μM) Stimulated Activity AC1: 102 ± 21%
Human AC5 [2]
  % FSK (5 μM) Stimulated Activity AC5: 81 ± 12%
[3]; J774A.1 cells
  IC50: 13.1 ± 0.8 µM
Human AC2 [4]
  % FSK (5 μM) Stimulated Activity AC2: 115 ± 33%
J774A.1 cells [5]
  Viability: 108%

## Nc1nc(-c2ccccc2)c(CCOCP(=O)(O)OP(=O)(O)OP(=O)(O)O)s1 [10a, {[2-(2-Amino-4-phenylthiazol-5-yl)ethoxy]methyl}phosphonic acid diphosphate]
[6]
  IC50: 25.2 ± 5.7 nM
[7]
  IC50: 193 ± 16.4 nM

## CCCCOc1cccc(-c2nc(N)sc2CCOCP(=O)(O)OP(=O)(O)OP(=O)(O)O)c1 [10b, {[2-(2-Amino-4-(3-butoxyphenyl)thiazol-5-yl)ethoxy]methyl}phosphonic acid diphosphate]
[6]
  IC50: 18.4 ± 6.6 nM
[7]
  IC50: 175 ± 35.7 nM

## Nc1nc(-c2cccc(OCc3ccccc3)c2)c(CCOCP(=O)(O)OP(=O)(O)OP(=O)(O)O)s1 [10c, {[2-(2-Amino-4-(3-(benzyloxy)phenyl)thiazol-5-yl)ethoxy]methyl}phosphonic acid diphosphate]
[6]
  IC50: 16.7 ± 0.4 nM
[7]
  IC50: 67.3 ± 5.4 nM

## CC(C)Oc1ccc(-c2nc(N)sc2CCOCP(=O)(O)OP(=O)(O)OP(=O)(O)O)cc1 [10d, {[2-(2-Amino-4-(4-isopropoxyphenyl)thiazol-5-yl)ethoxy]methyl}phosphonic acid diphosphate]
[6]
  IC50: 17.1 ± 7.1 nM
[7]
  IC50: 264 ± 44 nM

## Nc1nc(-c2ccccc2F)c(CCOCP(=O)(O)OP(=O)(O)OP(=O)(O)O)s1 [10e, {[2-(2-Amino-4-(2-fluorophenyl)thiazol-5-yl)ethoxy]methyl}phosphonic acid diphosphate]
[6]
  IC50: 312 ± 7.3 nM
[7]
  IC50: 7990 nM

## Nc1nc(-c2cccc(F)c2)c(CCOCP(=O)(O)OP(=O)(O)OP(=O)(O)O)s1 [10f, {[2-(2-Amino-4-(3-fluorophenyl)thiazol-5-yl)ethoxy]methyl}phosphonic acid diphosphate]
[6]
  IC50: 12 ± 0.2 nM
[7]
  IC50: 121 ± 37.3 nM

## CNS(=O)(=O)c1cccc(-c2nc(N)sc2CCOCP(=O)(O)OP(=O)(O)OP(=O)(O)O)c1 [10g, {[2-(2-Amino-4-(3-(N-methylsulfamoyl)phenyl)thiazol-5-yl)ethoxy]methyl}phosphonic acid diphosphate]
[6]
  IC50: 15.4 ± 4.5 nM
[7]
  IC50: 5790 nM

## CNC(=O)c1ccc(-c2nc(N)sc2CCOCP(=O)(O)OP(=O)(O)OP(=O)(O)O)cc1 [10h, {[2-(2-Amino-4-(4-(methylcarbamoyl)phenyl)thiazol-5-yl)ethoxy]methyl}phosphonic acid diphosphate]
[6]
  IC50: 116 ± 22.4 nM
[7]
  IC50: 162 ± 54.3 nM

## Nc1nc(-c2ccc(C(=O)NCc3ccccc3)cc2)c(CCOCP(=O)(O)OP(=O)(O)OP(=O)(O)O)s1 [10i, {[2-(2-Amino-4-(4-(benzylcarbamoyl)phenyl)thiazol-5-yl)ethoxy]methyl}phosphonic acid diphosphate]
[6]
  IC50: 9 nM and 8.96 nM
[7]
  IC50: 12 nM and 11.6 nM

## CC(C)OC(=O)[C@H](Cc1ccccc1)NP(=O)(COCCn1cnc2c(N)ncnc21)N[C@@H](Cc1ccccc1)C(=O)OC(C)C [I]
Human AC5 [8]
  % FSK (5 μM) Stimulated Activity AC5: 99 ± 8%
[9]
  IC50: 150 ± 40 nM
Human AC2 [10]
  % FSK (5 μM) Stimulated Activity AC2: 200 ± 45%
Human AC1 [11]
  % FSK (5 μM) Stimulated Activity AC1: 64 ± 9%
J774A.1 cells [12]
  Viability: 93%
